Tests used:
[1] = tested on: Vero E6; experiment: relative viability EC50 (midpoint between 100% and the lowest measured viability); higher = less toxic; settings: 72 h
[2] = tested on: Caco-2; experiment: as above; settings: 72 h
[3] = tested on: U2OS; experiment: as above; settings: 72 h
[4] = tested on: HepG2; experiment: as above; settings: 72 h
[5] = tested on: Calu-3; experiment: as above; settings: 72 h
[6] = tested on: Vero E6; experiment: cell viability relative to DMSO; higher = less toxic; settings: 72 h
[7] = tested on: Caco-2; experiment: as above; settings: 72 h
[8] = tested on: U2OS; experiment: as above; settings: 72 h
[9] = tested on: HepG2; experiment: as above; settings: 72 h
[10] = tested on: Calu-3; experiment: as above; settings: 72 h
[11] = tested on: Vero E6; experiment: drug sensitivity score (DSS) for viability; higher = more toxic; extreme values may be limits of the assay; settings: 72 h
[12] = tested on: Caco-2; experiment: as above; settings: 72 h
[13] = tested on: U2OS; experiment: as above; settings: 72 h
[14] = tested on: HepG2; experiment: as above; settings: 72 h
[15] = tested on: Calu-3; experiment: as above; settings: 72 h
[16] = tested on: A549-ACE2 infected with SARS-CoV-2; experiment: SARS-CoV-2 infection rate relative to DMSO; higher = more infection; settings: 24 h
[17] = tested on: A549-ACE2 infected with SARS-CoV-2; experiment: morphology score (similarity to uninfected cells); higher = more like uninfected cells; settings: 24 h
[18] = tested on: A549-ACE2 infected with SARS-CoV-2; experiment: cell count relative to DMSO; higher = less toxic; settings: 24 h
[19] = tested on: A549-ACE2; experiment: drug-induced phospholipidosis relative to tamoxifen; higher = more phospholipidosis
[20] = tested on: A549-ACE2; experiment: phospholipidosis EC50; higher = less potent phospholipidosis inducer

CNS(=O)(=O)Cc1ccc2[nH]cc(CCN(C)C)c2c1 [sumatriptan]
Settings	drug sensitivity score	relative viability EC50 [µM]
[1]	–	> 10
[2]	–	> 10
[3]	–	> 10
[4]	–	> 10
[5]	–	> 10
[11]	0	–
[12]	0	–
[13]	0	–
[14]	0	–
[15]	0	–

cell viability [%]
Settings	[6]	[7]	[8]	[9]	[10]
1 nM	91.6	91.4	98.1	81.4	101
10 nM	94.4	96.7	95.2	106	95.7
100 nM	87.9	104	97.8	89.1	93.6
1000 nM	94.7	106	96.2	101	100
10000 nM	103	96.2	97.7	99.5	94.4

CNCCCC1(c2ccccc2)OC(C)(C)c2ccccc21 (stereo unspecified) [talopram]
Settings	drug sensitivity score	relative viability EC50 [µM]
[1]	–	> 10
[2]	–	> 10
[3]	–	> 10
[4]	–	> 10
[5]	–	> 10
[11]	0	–
[12]	0	–
[13]	0	–
[14]	0	–
[15]	0	–

cell viability [%]
Settings	[6]	[7]	[8]	[9]	[10]
1 nM	93.7	91.4	101	101	99.4
10 nM	96.8	104	98.7	102	102
100 nM	90.1	103	100	89.8	102
1000 nM	99	101	99.4	110	96.3
10000 nM	104	99.2	99	106	103

NCCS(=O)(=O)O [taurine]
Settings	drug sensitivity score	relative viability EC50 [µM]
[1]	–	> 10
[2]	–	> 10
[3]	–	> 10
[4]	–	> 10
[5]	–	> 10
[11]	0	–
[12]	0	–
[13]	0	–
[14]	0	–
[15]	0	–

cell viability [%]
Settings	[6]	[7]	[8]	[9]	[10]
1 nM	94.5	94.9	94.4	110	100
10 nM	95.3	99.3	100	99.4	106
100 nM	95.1	98	98.9	101	102
1000 nM	89.1	95.6	103	102	97.6
10000 nM	106	103	101	104	101

COc1cccc([C@@H](C)NCCCc2ccccc2Cl)c1 [tecalcet]
Settings	drug sensitivity score	relative viability EC50 [µM]
[1]	–	> 10
[2]	–	> 10
[3]	–	> 10
[4]	–	> 10
[11]	0	–
[12]	0.2	–
[13]	0	–
[14]	0.2	–

Settings	SARS-CoV-2 infection rate [%]	cell count [%]	cell viability [%]	morphology score	phospholipidosis EC50 [µM]
[6], 1 nM	–	–	108	–	–
[6], 10 nM	–	–	103	–	–
[6], 100 nM	–	–	101	–	–
[6], 1000 nM	–	–	101	–	–
[6], 10000 nM	–	–	96.2	–	–
[7], 1 nM	–	–	101	–	–
[7], 10 nM	–	–	94.8	–	–
[7], 100 nM	–	–	94.5	–	–
[7], 1000 nM	–	–	92.4	–	–
[7], 10000 nM	–	–	86.3	–	–
[8], 1 nM	–	–	101	–	–
[8], 10 nM	–	–	97.6	–	–
[8], 100 nM	–	–	101	–	–
[8], 1000 nM	–	–	102	–	–
[8], 10000 nM	–	–	90.2	–	–
[9], 1 nM	–	–	92.9	–	–
[9], 10 nM	–	–	101	–	–
[9], 100 nM	–	–	101	–	–
[9], 1000 nM	–	–	108	–	–
[9], 10000 nM	–	–	83.1	–	–
[16], 0.3 µM	111	–	–	–	–
[16], 3 µM	84	–	–	–	–
[16], 10 µM	52	–	–	–	–
[16], 30 µM	10	–	–	–	–
[17], 0.3 µM	–	–	–	-0.35	–
[17], 3 µM	–	–	–	0.47	–
[17], 10 µM	–	–	–	0.9	–
[17], 30 µM	–	–	–	0.78	–
[18], 0.3 µM	–	97	–	–	–
[18], 3 µM	–	105	–	–	–
[18], 10 µM	–	116	–	–	–
[18], 30 µM	–	112	–	–	–
[20], 24 h	–	–	–	–	6.31
[20], 48 h	–	–	–	–	8.26
[20], 72 h	–	–	–	–	11.4

drug-induced phospholipidosis [%], [19]
Settings	0.3 µM	0.833333 µM	3.33333 µM	6.66667 µM	10 µM	30 µM
24 h	3.6	1.52	14.2	49.8	74.2	90
48 h	5	4.11	18.9	41.5	67.1	98.2
72 h	7.69	2.06	15.2	34.4	61.6	117

CCCc1nc2c(C)cc(-c3nc4ccccc4n3C)cc2n1Cc1ccc(-c2ccccc2C(=O)O)cc1 [telmisartan]
Settings	drug sensitivity score	relative viability EC50 [µM]
[1]	–	> 10
[2]	–	> 10
[3]	–	> 10
[4]	–	> 10
[5]	–	> 10
[11]	0	–
[12]	0	–
[13]	0	–
[14]	0	–
[15]	0	–

cell viability [%]
Settings	[6]	[7]	[8]	[9]	[10]
1 nM	100	89.5	97.3	94.2	92.9
10 nM	95.9	97.3	105	95.1	97.9
100 nM	96	90.7	97.5	103	102
1000 nM	92.9	90.6	98.9	99.8	102
10000 nM	96.6	87.5	98.6	111	108

Cc1cc(N2CCN([C@@H]3CN[C@H](C(=O)N4CCSC4)C3)CC2)n(-c2ccccc2)n1 [teneligliptin]
Settings	drug sensitivity score	relative viability EC50 [µM]
[1]	–	> 10
[2]	–	> 10
[3]	–	> 10
[4]	–	> 10
[5]	–	> 10
[11]	0	–
[12]	0	–
[13]	0	–
[14]	0	–
[15]	0	–

cell viability [%]
Settings	[6]	[7]	[8]	[9]	[10]
1 nM	104	104	95.8	101	104
10 nM	98.9	97.9	101	106	108
100 nM	101	94.3	99.5	98.4	92.6
1000 nM	99.2	101	100	97	91.9
10000 nM	98.2	90	98.3	94.7	102

Nc1nc2[nH]cnc2c(=S)[nH]1 [thioguanine]
Settings	drug sensitivity score	relative viability EC50 [µM]
[1]	–	2.94
[2]	–	1.19
[3]	–	1.16
[4]	–	1.75
[5]	–	> 10
[11]	4.8	–
[12]	5.7	–
[13]	7.9	–
[14]	7.1	–
[15]	0.9	–

cell viability [%]
Settings	[6]	[7]	[8]	[9]	[10]
1 nM	96.6	101	104	88.1	99.6
10 nM	103	90.1	98.5	99	103
100 nM	92.3	94.6	94	86.2	95
1000 nM	97.5	76.2	67.4	84.1	94.8
10000 nM	19.2	43.4	25.1	19.2	80.5

CCCC(C)C1(CC)C(=O)NC(=S)NC1=O (stereo unspecified) [thiopental]
Settings	drug sensitivity score	relative viability EC50 [µM]
[1]	–	> 10
[2]	–	> 10
[3]	–	> 10
[4]	–	> 10
[5]	–	> 10
[11]	0	–
[12]	0	–
[13]	0	–
[14]	0.1	–
[15]	0	–

cell viability [%]
Settings	[6]	[7]	[8]	[9]	[10]
1 nM	96.2	100	100	102	99.6
10 nM	95.2	100	98.2	100	98.6
100 nM	94	104	99.9	101	93.3
1000 nM	95.7	96.4	101	90.5	102
10000 nM	95.1	91	97.5	89.5	98.8

C[n+]1cccc(C(=O)[O-])c1 [trigonelline]
Settings	drug sensitivity score	relative viability EC50 [µM]
[1]	–	> 10
[2]	–	> 10
[3]	–	> 10
[4]	–	> 10
[5]	–	> 10
[11]	0.7	–
[12]	0	–
[13]	0	–
[14]	0	–
[15]	0	–

cell viability [%]
Settings	[6]	[7]	[8]	[9]	[10]
1 nM	99.6	96.8	104	89.2	102
10 nM	82.5	83.1	95.5	95.9	103
100 nM	106	92.9	96.5	91.8	105
1000 nM	102	94	101	82.9	103
10000 nM	76.6	99.3	97.4	90.5	95.7

CC(C)C[C@H](NC(=O)[C@@H](O)[C@H](N)Cc1ccccc1)C(=O)O [ubenimex]
Settings	drug sensitivity score	relative viability EC50 [µM]
[1]	–	> 10
[2]	–	> 10
[3]	–	> 10
[4]	–	> 10
[5]	–	> 10
[11]	0	–
[12]	0	–
[13]	0	–
[14]	0	–
[15]	0	–

cell viability [%]
Settings	[6]	[7]	[8]	[9]	[10]
1 nM	101	98.2	97	105	103
10 nM	98.8	108	105	93.4	96
100 nM	102	95.9	103	111	104
1000 nM	98.7	103	99.8	102	105
10000 nM	101	103	98.5	95.4	104

C[C@H](CCC(=O)O)[C@H]1CC[C@H]2[C@@H]3[C@@H](O)C[C@@H]4C[C@H](O)CC[C@]4(C)[C@H]3CC[C@]12C [ursodiol]
Settings	drug sensitivity score	relative viability EC50 [µM]
[1]	–	> 10
[2]	–	> 10
[3]	–	> 10
[4]	–	> 10
[5]	–	> 10
[11]	0	–
[12]	0.95	–
[13]	0	–
[14]	0	–
[15]	0	–

cell viability [%]
Settings	[6]	[7]	[8]	[9]	[10]
1 nM	97.3	106	104	97.7	97
10 nM	101	102	94.3	107	96.6
100 nM	100	98.4	96.2	97.2	102
1000 nM	104	94.9	93.2	108	87.2
10000 nM	103	85.8	108	106	105

NS(=O)(=O)Cc1noc2ccccc12 [zonisamide]
Settings	drug sensitivity score	relative viability EC50 [µM]
[1]	–	> 10
[2]	–	> 10
[3]	–	> 10
[4]	–	> 10
[5]	–	> 10
[11]	0	–
[12]	0	–
[13]	0	–
[14]	0	–
[15]	0	–

cell viability [%]
Settings	[6]	[7]	[8]	[9]	[10]
1 nM	101	84.9	94.1	110	95.1
10 nM	93.3	97.9	93.9	102	97.9
100 nM	98.5	96.1	92.4	98.2	100
1000 nM	93.8	96.3	98.4	94.5	115
10000 nM	106	106	102	102	88.1

Source: the supplement of paper PMC13380429
